Test results published in ChEMBL document CHEMBL2157869, “N'-substituted-2'-O,3'-N-carbonimidoyl bridged macrolides: novel anti-inflammatory macrolides without antimicrobial activity” (J Med Chem, 2012).
Values after ≈ are worked out from the molar mass of the structure shown. Active and inactive are the calls of the source. The calls are words filed in the database; no cut-off is given here.

How the values were obtained:
[1] = Cytotoxicity against human THP1 cells assessed as cell viability at 50 uM after 24 hrs by MTT assay; type: cell-based, THP-1; details: read-out: Activity
Cytochrome P450 3A4 [2] = target: T1, Cytochrome P450 3A4 (Homo sapiens, UniProt P08684)
T1 sequence (P08684 whole entry): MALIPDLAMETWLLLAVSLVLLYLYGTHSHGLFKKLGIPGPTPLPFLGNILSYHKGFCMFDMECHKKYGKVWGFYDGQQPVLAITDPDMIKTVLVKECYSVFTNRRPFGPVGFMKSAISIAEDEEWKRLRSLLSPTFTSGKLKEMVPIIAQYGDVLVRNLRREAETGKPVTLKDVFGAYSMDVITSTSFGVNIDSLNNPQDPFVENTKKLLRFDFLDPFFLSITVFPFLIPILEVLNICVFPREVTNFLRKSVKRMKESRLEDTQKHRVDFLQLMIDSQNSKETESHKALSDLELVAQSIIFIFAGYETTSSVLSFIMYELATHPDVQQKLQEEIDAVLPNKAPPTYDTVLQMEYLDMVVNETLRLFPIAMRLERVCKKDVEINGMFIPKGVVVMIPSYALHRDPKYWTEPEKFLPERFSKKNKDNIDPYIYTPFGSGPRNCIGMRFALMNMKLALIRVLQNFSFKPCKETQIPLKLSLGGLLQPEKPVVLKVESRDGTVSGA
Description: Inhibition of human recombinant CYP3A4 using 7-BQ as substrate preincubated for 5 to 10 mins before substrate addition

Mus musculus [3] = test: Antiinflammatory activity in BALB/cJ mouse assessed as decrease in LPS-induced neutrophil number in bronchoalveolar lavage fluid at 200 mg/kg, ip administered 2 hrs prior to LPS challenge measured after 24 hrs post LPS challenge; type: functional, organism-based; design: dose 200 mg/kg; details: Lung
[4] = Antiinflammatory activity in mouse splenocytes assessed as inhibition of LPS-induced IL-6 production at 50 uM preincubated for 2 hrs prior to LPS challenge by sandwich ELISA; type: functional; details: Splenocyte
Cytochrome P450 3A4 [5] = target: T1, Cytochrome P450 3A4; remark: listed apart in the source
Description: Inhibition of human recombinant CYP3A4 using DEF as substrate preincubated for 5 to 10 mins before substrate addition

[6] = Antiinflammatory activity in mouse splenocytes assessed as inhibition of LPS-induced IL-6 production at 12 uM preincubated for 2 hrs prior to LPS challenge by sandwich ELISA; type: functional; details: Splenocyte
Mus musculus [7] = test: Antiinflammatory activity in BALB/cJ mouse assessed as decrease in LPS-induced total cell number in bronchoalveolar lavage fluid at 200 mg/kg, ip administered 2 hrs prior to LPS challenge measured after 24 hrs post LPS challenge; type: functional, organism-based; design: dose 200 mg/kg; details: Lung
Streptococcus pyogenes = test: Antibacterial activity against Streptococcus pyogenes ATCC 700294 by CLSI broth microdilution method; type: functional
[8] = Antiinflammatory activity in mouse splenocytes assessed as inhibition of LPS-induced IL-6 production in mouse splenocytes at 25 uM preincubated for 2 hrs prior to LPS challenge by sandwich ELISA; type: functional; details: Splenocyte
Streptococcus pneumoniae = test: Antibacterial activity against Streptococcus pneumoniae ATCC 49619 by CLSI broth microdilution method; type: functional
Moraxella catarrhalis = test: Antibacterial activity against Moraxella catarrhalis ATCC 23246 by CLSI broth microdilution method; type: functional
Staphylococcus aureus = test: Antibacterial activity against Staphylococcus aureus ATCC 13709 by CLSI broth microdilution method; type: functional
Haemophilus influenzae = test: Antibacterial activity against Haemophilus influenzae ATCC 49247 by CLSI broth microdilution method; type: functional
[9] = target: Transcription factor Jun (Mus musculus) (UniProt P05627); test: Inhibition of AP1-mediated mediated IL-1beta production in LPS-induced mouse pulmonary neutrophila model
Sequence of Transcription factor Jun (Mus musculus) (P05627 whole entry): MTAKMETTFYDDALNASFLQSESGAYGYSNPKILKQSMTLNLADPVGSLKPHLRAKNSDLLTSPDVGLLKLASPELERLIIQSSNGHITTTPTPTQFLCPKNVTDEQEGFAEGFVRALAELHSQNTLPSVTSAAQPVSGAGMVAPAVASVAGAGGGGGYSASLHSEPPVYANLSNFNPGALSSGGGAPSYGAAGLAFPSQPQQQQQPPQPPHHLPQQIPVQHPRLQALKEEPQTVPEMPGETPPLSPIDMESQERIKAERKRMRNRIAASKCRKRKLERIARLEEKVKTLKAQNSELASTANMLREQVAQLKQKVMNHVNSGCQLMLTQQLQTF

[10] = Cmax in cystic fibrosis patient plasma at 500 mg; type: ADME, organism-based; design: dose 500 mg; details: human
[11] = Cmax in cystic fibrosis patient blood at 500 mg; type: ADME, organism-based; design: dose 500 mg; details: human, whole blood
[12] = Cmax in lung cancer patient epithelial lining fluid at 2 gram, po qd; type: ADME, organism-based; design: route oral; details: human
[13] = Cmax in lung cancer patient serum at 2 gram, po qd; type: ADME, organism-based; design: route oral; details: human

IC50 (Cytochrome P450 3A4 [2]) | IC50 (Cytochrome P450 3A4 [5]) | MIC (Streptococcus pyogenes) | Structure (SMILES) | viability at 24 h, 50 µM [1] | inhibition at 50 µM [4] | inhibition at 12 µM [6] | inhibition at 25 µM [8] | other results
> 10 µM | 7.9 µM | > 64 mg/L | CC/N=C1\O[C@H]2[C@H](O[C@@H]3[C@@H](C)[C@H](O[C@H]4C[C@@](C)(OC)[C@@H](O)[C@H](C)O4)[C@@H](C)C(=O)O[C@H](CC)[C@@](C)(O)[C@H](O)[C@@H](C)N(C)C[C@H](C)C[C@@]3(C)O)O[C@H](C)C[C@@H]2N1C | 0% | 99% | 86% | 96% | Activity (Mus musculus [3]): Active; Activity (Mus musculus [7]): Active
> 10 µM | 1.33 µM | > 64 mg/L | CC[C@H]1OC(=O)[C@H](C)[C@@H](O[C@H]2C[C@@](C)(OC)[C@@H](O)[C@H](C)O2)[C@H](C)[C@@H](O[C@@H]2O[C@H](C)C[C@H]3[C@H]2O/C(=N\CCCSC)N3C)[C@](C)(OC)C[C@@H](C)C(=O)N[C@H](C)[C@@H](O)[C@]1(C)O | 0% | 67% | 36% | 48% | 
 |  | > 64 mg/L | CC[C@H]1OC(=O)[C@H](C)[C@@H](O[C@H]2C[C@@](C)(OC)[C@@H](O)[C@H](C)O2)[C@H](C)[C@@H](O[C@@H]2O[C@H](C)C[C@H]3[C@H]2O/C(=N\C(C)(C)C)N3C)[C@](C)(OC)C[C@@H](C)C(=O)N[C@H](C)[C@@H](O)[C@]1(C)O | 0% | 86% | 52% | 62% | 

Further lines, the molecule ahead of its results:

Structure (SMILES) | IC50 (Cytochrome P450 3A4 [2]) | IC50 (Cytochrome P450 3A4 [5]) | MIC (Streptococcus pyogenes) | viability at 24 h, 50 µM [1] | inhibition at 50 µM [4] | inhibition at 12 µM [6] | inhibition at 25 µM [8] | other results
CC[C@H]1OC(=O)[C@H](C)[C@@H](O[C@H]2C[C@@](C)(OC)[C@@H](O)[C@H](C)O2)[C@H](C)[C@@H](O[C@@H]2O[C@H](C)C[C@H]3[C@H]2O/C(=N/c2cccc4ccccc24)N3C)[C@](C)(O)C[C@@H](C)CN(C)[C@H](C)[C@@H](O)[C@]1(C)O |  |  |  |  |  |  |  | MIC (Streptococcus pneumoniae): 1 mg/L (≈ 1.13 µM)
CC/N=C1\O[C@H]2[C@H](O[C@@H]3[C@@H](C)[C@H](O[C@H]4C[C@@](C)(OC)[C@@H](O)[C@H](C)O4)[C@@H](C)C(=O)O[C@H](CC)[C@@](C)(O)[C@H](O)[C@@H](C)C(=O)[C@H](C)C[C@@]3(C)O)O[C@H](C)C[C@@H]2N1C | 5.7 µM | 0.5 µM | > 64 mg/L | 0% | 86% | 70% | 80% | 
CC[C@H]1OC(=O)[C@H](C)[C@@H](O[C@H]2C[C@@](C)(OC)[C@@H](O)[C@H](C)O2)[C@H](C)[C@@H](O[C@@H]2O[C@H](C)C[C@H]3[C@H]2O/C(=N/c2ccc(OC)cc2)N3C)[C@](C)(OC)C[C@@H](C)C(=O)N[C@H](C)[C@@H](O)[C@]1(C)O | 4.7 µM | 0.7 µM | > 64 mg/L | 6% | 71% | 39% | 44% | 
CC[C@H]1OC(=O)[C@H](C)[C@@H](O[C@H]2C[C@@](C)(OC)[C@@H](O)[C@H](C)O2)[C@H](C)[C@@H](O[C@@H]2O[C@H](C)C[C@H]3[C@H]2O/C(=N/C(C)C)N3C)[C@@](C)(OC)C/C(C)=C2/O[C@@]1(C)C=C2C |  |  |  |  |  |  |  | MIC (Moraxella catarrhalis): 8 mg/L (≈ 10.5 µM)
CC[C@H]1OC(=O)[C@H](C)[C@@H](O[C@H]2C[C@@](C)(OC)[C@@H](O)[C@H](C)O2)[C@H](C)[C@@H](O[C@@H]2O[C@H](C)C[C@H]3[C@H]2O/C(=N/Cc2ccccc2)N3C)[C@@](C)(OC)C/C(C)=C2/O[C@@]1(C)C=C2C |  |  |  |  |  |  |  | MIC (Staphylococcus aureus): 8 mg/L (≈ 9.84 µM)
CC[C@H]1OC(=O)[C@H](C)[C@@H](O[C@H]2C[C@@](C)(OC)[C@@H](O)[C@H](C)O2)[C@H](C)[C@@H](O[C@@H]2O[C@H](C)C[C@H]3[C@H]2O/C(=N/Cc2ccccc2)N3C)[C@](C)(OC)C[C@@H](C)NC(=O)[C@H](C)[C@@H](O)[C@]1(C)O |  |  |  |  |  |  |  | MIC (Streptococcus pneumoniae): 1 mg/L (≈ 1.16 µM)
CC[C@H]1OC(=O)[C@H](C)[C@@H](O[C@H]2C[C@@](C)(OC)[C@@H](O)[C@H](C)O2)[C@H](C)[C@@H](O[C@@H]2O[C@H](C)C[C@H]3[C@H]2O/C(=N\C(C)C)N3C)[C@](C)(OC)C[C@@H](C)NC(=O)[C@H](C)[C@@H](O)[C@]1(C)O | > 10 µM | 1 µM | > 64 mg/L | 0% | 67% | 45% | 55% | 
CC/N=C1/O[C@H]2[C@H](O[C@@H]3[C@@H](C)[C@H](O[C@H]4C[C@@](C)(OC)[C@@H](O)[C@H](C)O4)[C@@H](C)C(=O)O[C@H](CC)[C@@]4(C)OC5(O[C@@]3(C)C[C@H]5C)[C@H](C)[C@@H]4C)O[C@H](C)C[C@@H]2N1C |  |  |  |  |  |  |  | Activity (Streptococcus pneumoniae): Active; Activity (Haemophilus influenzae): Active; Activity (Moraxella catarrhalis): Active; Activity (Staphylococcus aureus): Active; Activity (Streptococcus pyogenes): Active
CC[C@H]1OC(=O)[C@H](C)[C@@H](O[C@H]2C[C@@](C)(OC)[C@@H](O)[C@H](C)O2)[C@H](C)[C@@H](O[C@@H]2O[C@H](C)C[C@H]3[C@H]2O/C(=N/C(C)C)N3C)[C@](C)(OC)C[C@@H](C)N(C)C[C@H](C)[C@@H](O)[C@]1(C)O |  |  |  |  |  |  |  | MIC (Streptococcus pneumoniae): 1 mg/L (≈ 1.23 µM)
CC[C@H]1OC(=O)[C@H](C)[C@@H](O[C@H]2C[C@@](C)(OC)[C@@H](O)[C@H](C)O2)[C@H](C)[C@@H](O[C@@H]2O[C@H](C)C[C@H](N(C)C)[C@H]2O)[C@](C)(O)C[C@@H](C)CN(C)[C@H](C)[C@@H](O)[C@]1(C)O [AZITHROMYCIN] |  |  | < 0.125 mg/L | 0% | 84% | 61% | 74% | MIC (Streptococcus pneumoniae): < 0.125 mg/L; MIC (Haemophilus influenzae): 2 mg/L (≈ 2.67 µM); MIC (Moraxella catarrhalis): < 0.125 mg/L; Activity (Mus musculus [3]): Active; Activity (Mus musculus [7]): Active; MIC (Staphylococcus aureus): 0.5 mg/L (≈ 0.668 µM); inhibition [9]: Active; Cmax [10]: 0.67 µg/mL; Cmax [11]: 2.01 µg/mL; Cmax [12]: 3.2 µg/mL; Cmax [13]: 0.94 µg/mL
CC[C@H]1OC(=O)[C@H](C)[C@@H](O[C@H]2C[C@@](C)(OC)[C@@H](O)[C@H](C)O2)[C@H](C)[C@@H](O[C@@H]2O[C@H](C)C[C@H]3[C@H]2O/C(=N/Cc2ccccc2)N3C)[C@](C)(O)C[C@@H](C)CN(C)[C@H](C)[C@@H](O)[C@]1(C)O |  |  |  |  |  |  |  | MIC (Streptococcus pneumoniae): 1 mg/L (≈ 1.18 µM)
CC[C@H]1OC(=O)[C@H](C)[C@@H](O[C@H]2C[C@@](C)(OC)[C@@H](O)[C@H](C)O2)[C@H](C)[C@@H](O[C@@H]2O[C@H](C)C[C@H]3[C@H]2O/C(=N\C(C)C)N3C)[C@](C)(O)C[C@@H](C)C(=O)[C@H](C)[C@@H](O)[C@]1(C)O |  |  | > 64 mg/L | 0% | 94% | 61% | 81% | 
CC/N=C1\O[C@H]2[C@H](O[C@@H]3[C@@H](C)[C@H](O[C@H]4C[C@@](C)(OC)[C@@H](O)[C@H](C)O4)[C@@H](C)C(=O)O[C@H](CC)[C@@](C)(O)[C@H](O)[C@@H](C)C(=O)[C@H](C)C[C@@]3(C)OC)O[C@H](C)C[C@@H]2N1C | 2.9 µM |  | > 64 mg/L | 0% | 73% | 55% | 64% | 
CC[C@H]1OC(=O)[C@H](C)[C@@H](O[C@H]2C[C@@](C)(OC)[C@@H](O)[C@H](C)O2)[C@H](C)[C@@H](O[C@@H]2O[C@H](C)C[C@H]3[C@H]2O/C(=N\CCCN(C)C)N3C)[C@](C)(OC)C[C@@H](C)C(=O)[C@H](C)[C@@H](O)[C@]1(C)O | 8 µM | 0.7 µM | > 64 mg/L | 0% | 74% | 55% | 62% | 
CC/N=C1/O[C@H]2[C@H](O[C@@H]3[C@@H](C)[C@H](O[C@H]4C[C@@](C)(OC)[C@@H](O)[C@H](C)O4)[C@@H](C)C(=O)O[C@H](CC)[C@]4(C)C=C(C)/C(=C(/C)C[C@]3(C)OC)O4)O[C@H](C)C[C@@H]2N1C |  |  |  |  |  |  |  | MIC (Moraxella catarrhalis): 8 mg/L (≈ 10.7 µM)
